# Measurements published in patent publication US11464782B2, “Method of treating pain or interstitial cystitis using indole compound” (Japan Tobacco Inc., priority 2018, dated 2022).
# Test system: CYP-induced cystitis model mice
# Assay: Mouse cyclophosphamide (CYP)-induced cystitis model, lower abdominal licking time
# Assay type: in vivo
# Settings: 3, 6 or 10 mg/mL solutions at 10 mL/kg oral once per day Days 7-9
# Method: The inhibitory effect of Compound A on lower abdominal licking time was evaluated in a mouse CYP-induced cystitis model. The evaluation was performed according to M. Fujita et al., Eur J Pain. 20 (2016) 79-91. Male C57BL/6J mice (Charles River Laboratories Japan, Inc.) were used as the experimental animals.
# Once per day for four days (Days 1-4) 20 mg/mL of CYP (Sigma) dissolved in saline solution was intraperitoneally administered to a vehicle group, a Compound A administration group, and an anti-NGF antibody group at a volume of 10 mL/kg, and saline solution was intraperitoneally administered to a sham group at a volume of 10 mL/kg. A monohydrochloride of Compound A was dissolved in 0.5% methyl cellulose (MC) to prepare 3 mg/mL, 6 mg/mL, and 10 mg/mL solutions of Compound A. […]
# The behavior of the mice was recorded for 90 minutes using a video camera prior to the initial administration of CYP (Pre) and on Day 7, Day 8, and Day 10, and the lower abdominal licking time (seconds) was measured. […] The mean values of the licking times of the individual animals were calculated for each group, and the results are shown in FIG. 11.
compound,measurement,value
"C[C@@H](C(=O)N(C)c1ccc2cc(-c3n[nH]c4c3CCC(C)(C)C4)[nH]c2c1)N1CCOCC1 [Compound A, N-[2-(6,6-dimethyl-4,5,6,7-tetrahydro-1H-indazol-3-yl)-1H-indol-6-yl]-N-methyl-(2S)-2-(morpholin-4-yl)propanamide]",lower abdominal licking time,reduced lower abdominal licking time
